In brackets after ≈: the same amount, converted by molar mass. Where two headings read alike, the source gives them in different places.
Columns and labels:
S. aureus (ATCC29213) = assay: 50% growth inhibitory concentration (IC50) determination assay, S. aureus; assay type: cell-based; details: Staphylococcus aureus, ATCC29213; Iso-Sensitest broth, growth by OD 600 nm over 16 h; <0.098 = detection limit
Method in brief: (§1)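 Compounds two-fold diluted from 50 to 0.097 μM (final) in Iso-Sensitest broth, inoculum ~5×10^5 CFU/mL. Incubation at 35±2 °C with OD600 read every 20 min over 16 h to track growth.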

A. baumannii (ATCC17978) = assay: 50% growth inhibitory concentration (IC50) determination assay, A. baumannii; assay type: cell-based; details: Acinetobacter baumannii, ATCC17978; Iso-Sensitest broth, growth by OD 600 nm over 16 h; <0.098 = detection limit
Method in brief: as §1

[1] = Lyophilisation solubility assay (LYSA); assay type: physicochemical; details: aqueous buffer, thermodynamic from solid; 0.05 M phosphate buffer, pH 6.5; <1.0 = detection limit
Method: The solubility of compounds of present invention was assessed by LYSA assay. Samples were prepared in duplicate from 10 mM DMSO stock solutions (20 μL) diluted in 30 μL pure DMSO. After evaporation of DMSO with a centrifugal vacuum evaporator, the residue was dissolved in 0.05 M phosphate buffer (150 μL, pH 6.5), which was stirred for one hour and shook for two hours. After one night, the solution was filtered using a microtiter filter plate. Then the filtrate and its 1/10 dilution were analyzed by HPLC-UV. In addition a four-point calibration curve was prepared from the 10 mM stock solutions and used for the solubility determination of the compounds.

[2] = test system: K. pneumoniae (ATCC10031); assay: 50% growth inhibitory concentration (IC50) determination assay, K. pneumoniae; assay type: cell-based; details: Klebsiella pneumoniae, ATCC10031; Iso-Sensitest broth, growth by OD 600 nm over 16 h; <0.098 = detection limit
Method in brief: as §1

[3] = test system: multiple species and strains; assay: microbe, parasite or virus in culture; design: MIC S9 / MIC S7 / MIC S11 / MIC S8 / MIC S10: unit not given beside the values
Method in brief: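 Broth microdilution per CLSI M07-A10 in CAMHB, CAMHB+3% lysed horse blood or HTM. Inoculum was set to OD600 ~0.1, then diluted 1:280 (Gram-positive) or 1:400 (Gram-negative), and plates were incubated 18-24 h at 35±2° C in ambient air. MIC (μg/mL) is the lowest concentration giving no visible growth.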

[4] = Cytotoxicity assay (HepG2, CellTiter-Blue); assay type: cell-based; details: human; HepG2 cells, 3 days treatment; >100 = detection limit
Method: The cytotoxicity of compounds of present invention was assessed by HepG2 assay. HepG2 cells (ATCC RB-8065™) were seeded into 96-well plates (1.2×10^4 cells per well) and treated with compounds for 3 days, cell viability was measured at day 3 post compound treatment using the CellTiter-Blue® Cell Viability Assay (Promega, Cat. No. G8082). […], of Cell titer blue buffer were added to each well of the cells, which were incubated for 3 hours at 37° C., and the fluorescence value was measured by a plate reader (Molecular Device SpectraMax M2). The CC50 value of each compound is plotted with GraphPad Prism using four parameter logistic equation.

| SMILES | IC50 (S. aureus (ATCC29213)) | IC50 (A. baumannii (ATCC17978)) | solubility thermodynamic [1] | IC50 [2] | further results |
| --- | --- | --- | --- | --- | --- |
| CNc1cc(F)cc2c1[nH]c1ncc(-c3ccc4ccc(C(=O)O)c(=O)n4c3)c(N3C[C@@H]4CCN(C)[C@@H]4C3)c12 (single isomer, unassigned) [Example 3.01B] | < 98 nM | < 98 nM | 16 µg/mL (≈ 30.4 µM) | < 98 nM | – |
| CNc1cc(F)c(C#N)c2c1[nH]c1ncc(-c3ccc4ccc(C(=O)O)c(=O)n4c3)c(N3CC[C@H]4CCN(C)C4C3)c12 (stereo in doubt) [Example 1.17, 7-[4-[cis-1-methyl-3,3a,4,5,7,7a-hexahydro-2H-pyrrolo[2,3-c]pyridin-6-yl]-5-cyano-6-fluoro-8-(methylamino)-9H-pyrido[2,3-b]indol-3-yl]-4-oxo-quinolizine-3-carboxylic acid] | 139 nM | < 98 nM | 12 µg/mL (≈ 21.2 µM) | < 98 nM | MIC ([3]; Acinetobacter baumannii, ATCC19606, read-out: MIC S1, A. baumannii ATCC 19606): 0.882 µg/mL (≈ 1.56 µM); MIC ([3]; Acinetobacter baumannii, ATCC51432, read-out: MIC S2, A. baumannii ATCC 51432): 0.882 µg/mL (≈ 1.56 µM); MIC ([3]; Acinetobacter baumannii, ATCCBAA747, read-out: MIC S3, A. baumannii ATCC BAA-747): 0.882 µg/mL (≈ 1.56 µM); MIC S9 ([3]; E. coli ATCC 35218): 0.882; MIC ([3]; Escherichia coli, ATCC25922, read-out: MIC S11, E. coli ATCC 25922): 0.166 µg/mL (≈ 0.293 µM); MIC ([3]; Escherichia coli, ATCCBAA2340, read-out: MIC S10, E. coli ATCC BAA-2340): 0.882 µg/mL (≈ 1.56 µM); MIC ([3]; Klebsiella pneumoniae, ATCC10031, read-out: MIC S4, K. pneumoniae ATCC 10031): 0.028 µg/mL (≈ 0.0495 µM); MIC ([3]; Klebsiella pneumoniae, ATCC700603, read-out: MIC S5, K. pneumoniae ATCC 700603): 3.54 µg/mL (≈ 6.25 µM); MIC ([3]; Klebsiella pneumoniae, ATCCBAA2146, read-out: MIC S6, K. pneumoniae ATCC BAA-2146): 3.54 µg/mL (≈ 6.25 µM); MIC ([3]; Pseudomonas aeruginosa, ATCC27853, read-out: MIC S7, P. aeruginosa ATCC 27853): 0.882 µg/mL (≈ 1.56 µM); MIC ([3]; Pseudomonas aeruginosa, ATCCBAA2113, read-out: MIC S8, P. aeruginosa ATCC BAA-2113): 3.54 µg/mL (≈ 6.25 µM) |
| CNc1cc(F)c(F)c2c1[nH]c1ncc(-c3ccc4c(CN(C)C)cc(C(=O)O)c(=O)n4c3)c(N3CC[C@H]4CN(C)C[C@H]43)c12 (relative stereo) [Example 2.03, 7-[4-[cis-5-methyl-2,3,3a,4,6,6a-hexahydropyrrolo[2,3-c]pyrrol-1-yl]-5,6-difluoro-8-(methylamino)-9H-pyrido[2,3-b]indol-3-yl]-1-[(dimethylamino)methyl]-4-oxo-quinolizine-3-carboxylic acid] | 194 nM | < 98 nM | > 1060 µg/mL | < 98 nM | CC50 at 3 days [4]: 46400 nM |
| CNc1cc(F)cc2c1[nH]c1ncc(-c3ccc4ccc(C(=O)O)c(=O)n4c3)c(N3CCO[C@@H](CN(C)C)C3)c12 [Example 2.08, (S)-7-(4-(2-((dimethylamino)methyl)morpholino)-6-fluoro-8-(methylamino)-9H-pyrido[2,3-b]indol-3-yl)-4-oxo-4H-quinolizine-3-carboxylic acid] | 433 nM | 132 nM | 54 µg/mL (≈ 99.2 µM) | < 98 nM | – |
| CNc1cc(F)cc2c1[nH]c1ncc(-c3ccc4ccc(C(=O)O)c(=O)n4c3)c(N3CC[C@@H]4CN(C)C[C@@H]43)c12 (single isomer, unassigned) [Example 3.02B] | 1280 nM | 483 nM | > 683 µg/mL | < 98 nM | – |
| CNc1cc(F)c(F)c2c1[nH]c1ncc(-c3ccc4c(C(F)(F)F)cc(C(=O)O)c(=O)n4c3)c(N3CC[C@H]4CN(C)C[C@H]43)c12 (relative stereo) [Example 2.06, 7-[4-[cis-5-methyl-2,3,3a,4,6,6a-hexahydropyrrolo[2,3-c]pyrrol-1-yl]-5,6-difluoro-8-(methylamino)-9H-pyrido[2,3-b]indol-3-yl]-4-oxo-1-(trifluoromethyl)quinolizine-3-carboxylic acid] | – | – | 7 µg/mL (≈ 11.4 µM) | – | – |
| CNc1cc(F)c(F)c2c1[nH]c1ncc(-c3ccc4c(CN5CCCC5)cc(C(=O)O)c(=O)n4c3)c(N3CC[C@H]4CN(C)C[C@H]43)c12 (relative stereo) [Example 2.10, 7-[4-[cis-5-methyl-2,3,3a,4,6,6a-hexahydropyrrolo[2,3-c]pyrrol-1-yl]-5,6-difluoro-8-(methylamino)-9H-pyrido[2,3-b]indol-3-yl]-4-oxo-1-(pyrrolidin-1-ylmethyl)quinolizine-3-carboxylic acid] | – | – | > 940 µg/mL | – | CC50 at 3 days [4]: 89200 nM |
| CNc1cc(Cl)cc2c1[nH]c1ncc(-c3ccc4ccc(C(=O)O)c(=O)n4c3)c(N3CC[C@H]4CN(C)C[C@H]43)c12 (relative stereo) [Example 1.19, 7-[6-chloro-4-(cis-5-methyl-2,3,3a,4,6,6a-hexahydropyrrolo[2,3-c]pyrrol-1-yl)-8-(methylamino)-9H-pyrido[2,3-b]indol-3-yl]-4-oxo-quinolizine-3-carboxylic acid] | 185 nM | < 98 nM | 29 µg/mL (≈ 53.4 µM) | < 98 nM | – |
| CNc1cc(F)c(F)c2c1[nH]c1ncc(-c3ccc4c(CN5CCOCC5)cc(C(=O)O)c(=O)n4c3)c(N3CC[C@H]4CN(C)C[C@H]43)c12 (relative stereo) [Example 2.09, 7-[4-[cis-5-methyl-2,3,3a,4,6,6a-hexahydropyrrolo[2,3-c]pyrrol-1-yl]-5,6-difluoro-8-(methylamino)-9H-pyrido[2,3-b]indol-3-yl]-1-(morpholinomethyl)-4-oxo-quinolizine-3-carboxylic acid] | 174 nM | < 98 nM | 795 µg/mL (≈ 1240 µM) | < 98 nM | CC50 at 3 days [4]: 86900 nM |
| CNc1cc(F)c(F)c2c1[nH]c1ncc(-c3cc(C)c4ccc(C(=O)O)c(=O)n4c3)c(N3CC[C@H]4CN(C)C[C@H]43)c12 (relative stereo) [Example 2.01, 7-(5,6-Difluoro-8-(methylamino)-4-(cis-5-methyl-2,3,3a,4,6,6a-hexahydropyrrolo[2,3-c]pyrrol-1-yl)-9H-pyrido[2,3-b]indol-3-yl)-9-methyl-4-oxo-4H-quinolizine-3-carboxylic acid] | < 98 nM | < 98 nM | 41 µg/mL (≈ 73.4 µM) | < 98 nM | – |
| CNc1cc(F)cc2c1[nH]c1ncc(-c3ccc4ccc(C(=O)O)c(=O)n4c3)c(N3CCC4(C)CN(C)CC34)c12 (stereo not drawn) [Example 1.10, 7-[4-(3a,5-dimethyl-3,4,6,6a-tetrahydro-2H-pyrrolo[2,3-c]pyrrol-1-yl)-6-fluoro-8-(methylamino)-9H-pyrido[2,3-b]indol-3-yl]-4-oxo-quinolizine-3-carboxylic acid] | < 98 nM | < 98 nM | 90 µg/mL (≈ 166 µM) | < 98 nM | – |
| CNc1cc(F)c(F)c2c1[nH]c1ncc(-c3cc(F)c4ccc(C(=O)O)c(=O)n4c3)c(N3CC[C@H]4CN(C)C[C@H]43)c12 (relative stereo) [Example 2.02, 7-[4-[cis-5-methyl-2,3,3a,4,6,6a-hexahydropyrrolo[2,3-c]pyrrol-1-yl]-5,6-difluoro-8-(methylamino)-9H-pyrido[2,3-b]indol-3-yl]-9-fluoro-4-oxo-quinolizine-3-carboxylic acid] | 108 nM | < 98 nM | 58 µg/mL (≈ 103 µM) | < 98 nM | – |
| CNc1cc(F)cc2c1[nH]c1ncc(-c3ccc4ccc(C(=O)O)c(=O)n4c3)c(N3C[C@H]4CCN(C)[C@H]4C3)c12 (single isomer, unassigned) [Example 3.01A] | < 98 nM | < 98 nM | 9 µg/mL (≈ 17.1 µM) | < 98 nM | – |
| CNc1cc(F)cc2c1[nH]c1ncc(-c3ccc4ccc(C(=O)O)c(=O)n4c3)c(N3CCO[C@H](CN(C)C)C3)c12 [Example 2.07, (R)-7-(4-(2-((dimethylamino)methyl)morpholino)-6-fluoro-8-(methylamino)-9H-pyrido[2,3-b]indol-3-yl)-4-oxo-4H-quinolizine-3-carboxylic acid] | 379 nM | 242 nM | 48 µg/mL (≈ 88.1 µM) | < 98 nM | – |
| CNc1cc(F)cc2c1[nH]c1ncc(-c3ccc4ccc(C(=O)O)c(=O)n4c3)c(N3CC[C@H]4CN(C)C[C@H]43)c12 (single isomer, unassigned) [Example 3.02A] | 102 nM | < 98 nM | 559 µg/mL (≈ 1060 µM) | < 98 nM | CC50 at 3 days [4]: 41300 nM |

Reference: patent US20210238197A1, “NOVEL OXOQUINOLIZINE COMPOUNDS FOR THE TREATMENT AND PROPHYLAXIS OF BACTERIAL INFECTION” (Hoffmann-La Roche Inc., priority 2018, published 2021)
